Source: patent US5861387A, “Controlled release systems and low dose androgens” (Endorecherche Inc., priority 1995, dated 1999)
Converted amounts (≈) assume the structure as drawn. Like-named read-outs stand apart in the source and are kept apart here.

How the values were obtained:
[1] = system: human breast cancer ZR-75-1 cells, androgen receptor; assay: Androgenic (androgen receptor) activity in ZR-75-1 cells: cell growth and GCDFP-15/GCDFP-24 secretion; format: cell-based; details: ZR-75-1 cells, low concentrations
Procedure: Maintenance of stock cultures The ZR-75-1 human breast cancer cell line can be obtained from the American Type Culture Collection (Rockville, Md.). The cells are routinely cultured in phenol red-free RPMI 1640 medium supplemented with 10 nM E2, 15 mM Hepes, 2 mM L-glutamine, 1 mM sodium pyruvate, 100 IU penicillin per ml, 100 μg streptomycin sulfate per ml, and 10% (v/v) fetal bovine serum (FBS), in a water-saturated atmosphere of 95% air: 5% CO2 at 37° C.
Stock cultures in their logarithmic growth phase are harvested with 0.05% trypsin/0.02% EDTA (w/v) in Hanks' balanced salts solution and resuspended in E2- and phenol red-free RPMI 1640 medium containing 5% (v/v) dextran-coated charcoal (DCC)-treated FBS and 500 ng of bovine insulin per ml, but otherwise supplemented as described above for maintenance of stock cultures. Cells were plated in 24-well Linbro culture plates (Flow Laboratories) at a final density of 0.5-4.0×10^4 cells/well.
Fourty-eight hours after plating, fresh SD medium containing the appropriate concentrations of steroids are added. […] The incubation media are replaced every other day and cells are harvested by trypsinization after 12 days of treatment, unless otherwise indicated. Cell number can be determined with a Coulter Counter.
Calculations and statistical analyses Apparent IC50 values are calculated using an iterative least squares regression (Rodbard, Endocrinology 94:1427-1437,1974), while apparent inhibition constants (Ki values) are calculated according to Cheng and Prusoff (Biochem. Pharmacol. 22: 3099-3108,1973).
In addition to inhibition of cell growth, the secretion of two glycoproteins, namely gross cystic disease fluid protein-15 (GCDFP-15) and GCDFP-24 is markedly stimulated by androgens (Simard et al., Mol. Endocrinol. 3: 694-702, 1989; Simard et al., Endocrinology 126: 3223-3231, 1990).
(§1) To assist in determining the activity of the potential compounds on the various steroid receptors, androgen, glucocorticoid, progesterone and estrogen-receptor-mediated activities of synthetic progestins and anabolic steroids can be measured in ZR-75-1 human breast cancer cells using cell growth as well as GCDFP-15 and GCDFP-24 release as parameters of response (Poulin and Labrie, Cancer Res. 46: 4933-4937, 1986; Poulin et al., Breast Cancer Res. Treatm. 12: 213-225, 1988; Poulin et al., Breast Cancer Res. Treatm. 13: 161-172, 1989; Poulin et al., Breast Cancer Res. Treatm. 13: 265-276, 1989; Simard et al., Mol. Endocrinol. 3: 694-702, 1989; Simard et al., Endocrinology 126: 3223-3231, 1990).
In order to analyze the interactions of synthetic progestins or anabolic steroids with the androgen receptor (AR) and glucocorticoid receptor (GR) in their inhibitory action on cell growth, one takes advantage of the additivity of the anti-proliferative effects of androgens and glucocorticoids in this cell line (Poulin et al., Breast Cancer Res. Treatm. 12: 213-225, 1988; Hatton and Labrie, F., unpublished data). […] On the other hand, the effect of a putative androgen can similarly be measured following saturation of GR by dexamethasone (DEX). […] Thus, in the presence of excess androgen (1 μM DMT) in the presence of E2 and insulin, glucocorticoid effects can be assessed with precision and with no interference by the other receptors. The same applies to study of the role of AR when the cells are incubated in the presence of excess glucocorticoid (3 μM DEX), in the presence of E2 and insulin.

estrogenic activity = details: cited from earlier work
[2] = system: ZR-75-1 human breast cancer cells, glucocorticoid receptor; details: detailed kinetic studies
Description: as §1
In order to analyze the interactions of synthetic progestins or anabolic steroids with the androgen receptor (AR) and glucocorticoid receptor (GR) in their inhibitory action on cell growth, one takes advantage of the additivity of the anti-proliferative effects of androgens and glucocorticoids in this cell line (Poulin et al., Breast Cancer Res. Treatm. 12: 213-225, 1988; Hatton and Labrie, F., unpublished data). […] On the other hand, the effect of a putative androgen can similarly be measured following saturation of GR by dexamethasone (DEX). […]

[3] = system: estrogen binding in the endometrium; details: oral, follicular phase; cited from earlier work
kidney = details: mouse, in vivo; cited from earlier work
pituitary AR [4] = details: rat, in vivo; cited from earlier work
endometrial cancer = details: high dose; cited from earlier work
[5] = cited from earlier work
[6] = Stability to gamma sterilization (SEC, viscosity); format: physicochemical; details: 2.2 Megarads
Description: FIGS. 10A and 10B show, in (A), "the variation of the different parameters" [M(n-1), Mn, Mw, Mz,M(z+1)] characteristics of the molecular mass of 50:50 poly[DL-lactide-co-glycolide] following exposure to the indicated levels of gamma irradiation (Mrad); and, in (B), the variation of the polydensity (Mw/Mn) versus the level of gamma irradiation (Mrad).
Before injection, the microspheres were sterilized by exposure to 2.2 Megarads of gamma radiation achieved with a Cobalt-60 source (Gammacell 200). The stability of MPA was checked by steric exclusion chromatography (SEC) while the stability of the polymer was analyzed by SEC using polystyrene standards for calibration and by the modification of the relative viscosity using a Ubbelohde capillary viscometer.
Samples of batch MPA-MB-V have been exposed to different amounts of gamma radiation (0,1.1, 2.2 Megarads) and the molecular mass distribution parameters [M(n-1), Mn, Mw, Mz, M(z+1)] (see FIG. 10A) as well as their polydispersity (Mw/Mn) (FIG. 10B) were measured.

ventral prostate = details: rat, in vivo; cited from earlier work
endometriosis [7] = details: high dose, 6 months, cited from earlier work
antibody 144A = assay: MPA radioimmunoassay, specificity of antibody 144A; format: binding, rabbit
Description: Antibody 144A was raised in rabbits against 17-hydroxyprogesterone-3-0-carboxymethyloxime-BSA. The labeled steroid used in the radioimmunoassay (RIA) was methyl-17α-hydroxyprogesterone acetate, 6α-[1,2-^3 H(N)]- obtained from NEN (CAT NO: NET 480) while the reference preparation was medroxyprogesterone acetate (MPA) obtained from Steraloids. The assay buffer used was 0.1% gelatin in 0.1M sodium phosphate, 0.15M sodium chloride, 0.1% sodium azide, pH 7.2. The extraction solvent mixture was ethyl ether-acetone (9:1, v:v) [EEA] while the LH-20 chromatography solvent mixture was iso-octane: toluene: methanol (90:5:5;v:v:v) [IOTH].
One ml of plasma was extracted twice with 5 ml of EEA. The extracts were evaporated to dryness with nitrogen and the remaining residue was dissolved in one ml of IOTH. The extracts were then subjected to LH-20 chromatography on […] columns (Coming CAT NO: 05 722A) filled with 2 g of LH-20 (Pharmacia). The gel was washed with 30 ml of IOTH before addition of one ml of sample and elution with IOTH. The first 6 ml were discarded. The following 10, 16.5 and 27.5 ml of eluent were fraction I (progesterone), II (MPA) and III (17-LH-progesterone), respectively. Fraction II was evaporated to dryness and reconstituted in 1.5 ml of assay buffer.
To each 12 x 75 mm borosilicate test tube was added: 0.2 ml containing 25,000 DPM of tritiated steroid, 0.5 ml of reference preparation ranging from 5 to 5000 pg/tube or 0.5 ml of extracted sample fraction II, 0.2 ml of antiserum 144A diluted 1/5000 or 0.2 ml of assay buffer to account for non specific binding. The tubes were then incubated overnight at 4° C. Then, 0.2 ml 2% charcoal Norit-A, 0.2% Dextran T-70 diluted in water was added. The tubes were then shaken gently and, after 10 min, they were centrifuged at 2000 x g for 10 min. The supernatant was mixed with 8 ml of Formula-989 (NEN: NEF-989) and the radioactivity was counted in a β-counter.

breast cancer = details: high doses, unselected breast cancer patients; cited from earlier work
pituitary AR [8] = details: in vivo; cited from earlier work
[9] = system: ZR-75-1 human breast cancer cells; details: cited from earlier work
[10] = system: ZR-75-1 human breast cancer cells, progesterone receptor; assay: Progesterone receptor-mediated inhibition of ZR-75-1 cell growth; format: cell-based
Procedure: These two characteristics of ZR-75-1 cell growth permit study of the extent to which a tested compound's effects on ZR-75-1 cells are attributed to its interaction with PgR by evaluating the effect of insulin and/or estrogen addition on the growth response measured at the end of a 15-day incubation of ZR-75-1 cells with the test compounds.

[11] = system: estrogen (ER) and progesterone (PgR) receptor contents in ZR-75-1 cells; details: cited from earlier work
endometriosis [12] = details: in vivo; cited from earlier work
bone resorption = details: in vivo; cited from earlier work
bone [13] = details: in vivo; cited from earlier work
bone [14] = details: in vivo; cited from earlier work; remark: listed apart in the source
[15] = system: hypocalcemic effect of calcitonin; details: castrated rats; cited from earlier work
bone [16] = details: cited from earlier work
bone [17] = details: in vivo; cited from earlier work; remark: listed apart in the source
masculinizing activity = details: low blood concentrations; cited from earlier work

In the case of `C#CC1(O)CC[C@H]2[C@@H]3CCC4=CC(=O)CC[C@@H]4[C@H]3CC[C@@]21CC` (mixture of isomers) [norgestrel], the androgenic activity [1] is listed as “possess androgenic activity at low concentrations” and the estrogenic activity (estrogenic activity) is listed as “possess estrogenic activity”.
In the case of `C[C@@H]1C[C@H]2[C@@H]3CCC4=CC(=O)C=C[C@]4(C)[C@@]3(F)[C@@H](O)C[C@]2(C)[C@@]1(O)C(=O)CO` [DEX, dexamethasone], the “concentration exerting maximal inhibitory effect on the GR” value [2] is reported as 3 µM.
In the case of `CC(=O)O[C@]1(C(C)=O)CC[C@H]2[C@@H]3C[C@H](C)C4=CC(=O)CC[C@]4(C)[C@H]3CC[C@@]21C` [MPA, 6-alpha-methyl,17-alpha-acetoxy progesterone], the “level of estrogen binding in the endometrium” value [3] is given as “decrease in the level of estrogen binding”, the androgenic activity (kidney) is given as “exhibits androgenic activity” and the “effect on gonadotropin secretion” value (pituitary AR [4]) is given as “inhibitory effect”. The “treatment of endometrial cancer” value (endometrial cancer) was “successfully used”, the “treatment of endometrial carcinoma compared with Tamoxifen” value (endometrial cancer) was “success similar to that of Tamoxifen” and the virilizing symptoms ([5]; acne, hirsutism) was “seldom causes significant virilizing symptoms”. The adrenal function ([5]; human, in vivo) was “Suppression of adrenal function”, the glucocorticoid-like side effects ([5]; human, in vivo) was “Cushingoid syndrome, euphoria and subjective pain relief” and the “stability to gamma radiation” value [6] was “does not damage MPA”. The androgenic activity (ventral prostate) was “exhibits androgenic activity”, the partial resolution (endometriosis [7]; placebo 6%) was 13 % of subjects and the “resolution of the disease” value (endometriosis [7]; placebo 12%) was 50 % of the patients. The “ED50 value (RIA)” value (antibody 144A; MPA radioimmunoassay) was 0.315 ng/mL (≈ 0.815 nM), the “overall clinical response rate” value (breast cancer) was 40% and the “effect on gonadotropin secretion” value (pituitary AR [8]) was “inhibitory effect”. The “concentration of maximal inhibitory action on human breast cancer cell growth” value [9] was 1 nM, the “dose required for glucocorticoid action relative to maximal growth inhibition” value [9] was “approximately 1000 fold” and the “mechanism of growth inhibition of ZR-75-1 cells” value [9] was “mainly due to the androgenic properties of the compound”.
With `CCC(=O)[C@@]1(C)CC[C@H]2[C@@H]3CCC4=CC(=O)CCC4=C3CC[C@@]21C` [R5020] the “condition under which antiproliferative effect is observed” value [10] was “observed only under E1 -stimulated conditions” and the “effect of insulin on inhibition via PgR” value ([10]; addition of insulin) was “completely reverses the inhibition”.
In the case of `CC(C)(O)C(=O)Nc1ccc([N+](=O)[O-])c(C(F)(F)F)c1` [hydroxyflutamide], the “effect on androgenic action of DHT” value [11] is listed as “competitively reversed”.
In the case of `C[C@]12CCC(=O)C=C1CC[C@@H]1[C@@H]2CC[C@@]2(C)[C@H]1CC[C@]2(C)O` [methyltestosterone, 17α-methyltestosterone], the symptoms of endometriosis (endometriosis [12]) is given as “relieve the symptoms of endometriosis”.
In the case of `CCCCCCCCCC(=O)O[C@H]1CC[C@H]2[C@@H]3CCC4=CC(=O)CC[C@@H]4[C@H]3CC[C@]12C` [nandrolone decanoate], the bone resorption (bone resorption) is listed as “reduced bone resorption”, the bone mass (bone [13]) is listed as “increased bone mass” and the “bone resorption, osteoporotic women” value (bone [13]) is listed as “reduced bone resorption”.
For `C[C@]12CC[C@H]3[C@@H](CCC4=CC(=O)CC[C@@H]43)[C@@H]1CC[C@@H]2O` [nandrolone], the androgenic side effects (bone [14]) is given as 50 % of patients and the “cortical bone mineral content” value (bone [14]) is given as “increased cortical bone mineral content”.
For `C#C[C@]1(O)CC[C@H]2[C@@H]3CCC4=CC(=O)CC[C@@H]4[C@H]3CC[C@@]21C` [norethisterone], the estrogenic activity (estrogenic activity) is listed as “possess estrogenic activity”.
In the case of `C[C@]12CC[C@H]3[C@@H](CCC4=CC(=O)CC[C@@]43C)[C@@H]1CC[C@@H]2O` [testosterone], the “hypocalcemic effect of calcitonin” value [15] is given as “increases the hypocalcemic effect of calcitonin”, the bone histomorphometry (bone [16]; hypogonadal males) is given as “increases in relative osteoid volume, total osteoid surface, linear extend of bone formation and bone mineralization” and the “nitrogen, calcium and phosphate balance” value (bone [16]; in vivo) is given as “positive nitrogen, calcium and phosphate balance”. For the same molecule, the “osteoid surfaces and beam width” value (bone [16]; in vivo) was “increase osteoid surfaces and beam width”, the bone formation (bone [16]; men with primary hypogonadism) was “increases bone formation” and the “overall quantity of bone” value (bone [17]) was “increases the overall quantity of bone”. The “cross-reactivity with antibody 144A” value (antibody 144A) was “less than 0.1%” and the masculinizing activity (masculinizing activity) was “considerable masculinizing activity even at low blood concentrations”.
